Experimental findings from US12612358B2, “Resorcinol-based compounds and uses thereof” (priority 2020, dated 2026) are described below.

Each structure is given as a SMILES string.

Series [1] is described as follows: Mouse liver microsome stability (Eurofins ADME). In kind it is in vitro ADME. The protocol: (§1) Evaluating ADME of Compound-5B in vitro. It is important to evaluate ADME first in culture as it allows for the selection of the best candidate for PK analysis in vivo. ADME analysis of Compound-5B was performed by Eurofins.
Series [2] has as its target T1, DRD1 (Dopamine receptor D1) (Homo sapiens, UniProt P21728).
T1 construct: purchased Eurofin's
The series can be described thus: SAFETY scan E/IC50 ELECT, DRD1. It counts as biochemical. The settings on record: read-out: inhibition against DRD1 (mild).

The next series addresses T2, CYP2C8 (Homo sapiens, UniProt P10632).
T2 construct: purchased Eurofins
The series can be described thus: CYP2C8 inhibition. In kind it is in vitro ADME. Particulars: 10 μM. The protocol: as §1

A further series has as its system DU145 (prostate). Put plainly: Cell proliferation, DU145 prostate cancer cells. It counts as cell-based. The settings on record: Homo sapiens, DU-145, read-out: IC50 category. The source says: Effects of Compound-5B on cell proliferation in additional cancer cells: To determine whether Compound-5B would have broad based anticancer activity, we study whether Compound-5B would be effective at inhibiting cell proliferation in a variety of cancers overexpressing Id-1. The assay conditions used were identical to those presented for breast and pancreatic cancers. Indeed, Compound-5B was potent at inhibiting cell proliferation in blood cancer (leukemia), glioblastoma, prostate, and ovarian cancer.

Another series has as its system PANC-1. The series can be described thus: CellTiter-Glo cell proliferation, PANC-1 pancreatic cancer cells. In kind it is cell-based, human. The source says:
Cell culture and treatment of pancreatic cancer cell lines: Pancreatic cancer cells lines BxPC-3, SW1990, and PANC-1 used in the experiments presented herein can be obtained from ATCC. The cells can be cultured and passaged in complete growth medium (RPMI-1640, Dulbecco's Modified Eagle Medium, or Leibovitz's L-15 medium) that has been supplemented with fetal bovine serum to a final concentration of 10%.
Effects of Compound-5B on proliferation and Id-1 expression in pancreatic cell lines. Compound-5B was next tested for inhibition of cell viability/proliferation in the three pancreatic cancer cell lines and two primary patient-derived cancer cell lines. Compound-5B inhibited cell viability/proliferation of all the cancer cell lines (Table 2). The culturing condition for the pancreatic cell lines was similar to those used in the breast cancer lines, with the exception of the primary patient-derived pancreatic cancer cell lines (PANC9 and PANC13). For determining inhibition of cell proliferation in patient-derived pancreatic cancer cells were cultured in a T75 ultra low attachment flasks with DMEM/F12 media supplemented with B27, penicillin/streptomycin (10,000 u/mL), 50 µg/mL human epidermal growth factor (hEGF), 50 μg/mL human fibroblast growth factor, and 5 μg/mL heparin. Cells were plated in a 384-well plate and incubated for three days to promote the formation of tumorspheres. Cells were then treated with Compound-5B for three days. Cell proliferation of pancreatic cells in the presence of drug was measured using the CellTiter-Glo luminescent Assay and IC50 values were calculated (Table 2). The IC50 and corresponding 95% confidence limits (CL) were calculated using non-linear regression analysis.

Series [3] has as its system MDA-MB231 breast cancer cells. The series can be described thus: Combination with paclitaxel, viability of MDA-MB231 cells (combination index). In kind it is cell-based, human. Particulars: combination with paclitaxel at optimal combined ratios. The protocol:
Concentration-response curves were generated for Compound-5B and paclitaxel alone and in combination (FIG. 2C). The inhibitory values from the concentration response curves were used to calculate combination index (CI) values at multiple combination ratios (FIG. 3A). Methods: Multiple viability assays in a 384 well format were run for each compound and the average percent inhibition of cell viability was calculated and transformed to fraction affected (Fa) e.g., percent inhibitory effect. CI values were calculated using Compusyn software (FIG. 3B). After determining the (IC50/Fa 0.5) values of the drugs individually (C), components were then combined at specific concentration ranges (FIG. 3B) and a combination index was calculated where CI<1, =1, and >1 indicate synergism, additive effect, and antagonism, respectively.

Another series relates to mouse 4T1 TNBC. Put plainly: Cell proliferation, 4T1 TNBC cells. It counts as cell-based. Particulars: mouse 4T1 TNBC cells; read-out: IC50 group for inhibition of cell proliferation.
Series [4] has as its target T3, ADRB1 (β-Adrenergic receptor) (Homo sapiens, UniProt P08588).
T3 construct: purchased Eurofin's
Put plainly: SAFETY scan E/IC50 ELECT, ADRB1. The settings on record: read-out: inhibition against ADRB1 (mild). It counts as biochemical.

The next series deals with Id-1. The series can be described thus: Id-1 expression in MDA-MB231 cells (Western analysis). It counts as cell-based, human. The protocol: Quantitative Western analysis: Cells are cultured and treated in 6-well dishes. After the cells are washed twice with cold PBS, lysis buffer is added. The cells are then lysed by freezing for 10 min at −70° C. and then thawing at ambient temperature. The cell lysate is collected and the protein content is determined by using Bradford reagent. Equal amounts of protein are heated at 90° C. in Laemmli sample buffer which also included β-mercaptoethanol. The samples are then loaded onto a precast SDS-PAGE gel (Bio-Rad Laboratories, Hercules, CA). After which, proteins are then electroblotted onto an Immobilon membrane (Millipore, Billerica, MA) overnight at 2-4° C. The membrane is then blocked for 1 hour with 5% nonfat dry milk which included TBS+Tween. The membranes are then incubated with an anti-Id-1 primary antibody, and then an appropriate secondary antibody was used. Blots are incubated for 45 min and then washed 4 times with TBS+Tween for 15 min each. […]
Effects of Compound-5B on breast cancer cell proliferation, Id-1 expression and invasion in culture. […] The ability of the cells to migrate and invade in modified Boyden chambers was determined. The percentage relative invasion was calculated as the effect on treated cells/vehicle cells×100. […]

T3 sequence (P08588 whole entry): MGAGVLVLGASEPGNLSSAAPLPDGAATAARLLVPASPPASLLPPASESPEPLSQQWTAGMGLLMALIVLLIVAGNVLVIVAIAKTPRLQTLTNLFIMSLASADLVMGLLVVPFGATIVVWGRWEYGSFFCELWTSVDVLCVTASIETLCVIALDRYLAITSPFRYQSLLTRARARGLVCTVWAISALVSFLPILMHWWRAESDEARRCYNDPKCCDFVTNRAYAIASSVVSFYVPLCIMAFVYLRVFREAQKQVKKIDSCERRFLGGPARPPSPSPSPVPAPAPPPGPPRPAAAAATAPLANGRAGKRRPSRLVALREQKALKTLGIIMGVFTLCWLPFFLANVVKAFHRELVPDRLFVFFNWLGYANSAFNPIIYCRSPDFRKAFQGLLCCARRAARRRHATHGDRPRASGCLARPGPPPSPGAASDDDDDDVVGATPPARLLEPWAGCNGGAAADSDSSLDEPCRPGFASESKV
T1 sequence (P21728 whole entry): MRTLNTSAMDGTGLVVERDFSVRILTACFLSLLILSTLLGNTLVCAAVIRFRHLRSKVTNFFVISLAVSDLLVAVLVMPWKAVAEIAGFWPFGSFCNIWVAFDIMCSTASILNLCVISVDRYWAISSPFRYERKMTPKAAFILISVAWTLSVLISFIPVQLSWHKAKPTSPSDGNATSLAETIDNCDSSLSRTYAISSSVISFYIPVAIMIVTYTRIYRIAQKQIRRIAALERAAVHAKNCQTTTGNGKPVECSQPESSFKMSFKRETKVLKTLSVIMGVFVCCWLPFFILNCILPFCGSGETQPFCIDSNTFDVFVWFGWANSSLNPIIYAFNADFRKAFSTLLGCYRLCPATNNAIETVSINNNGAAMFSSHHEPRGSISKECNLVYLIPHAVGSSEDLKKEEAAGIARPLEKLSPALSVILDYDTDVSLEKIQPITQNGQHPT
T2 sequence (P10632 whole entry): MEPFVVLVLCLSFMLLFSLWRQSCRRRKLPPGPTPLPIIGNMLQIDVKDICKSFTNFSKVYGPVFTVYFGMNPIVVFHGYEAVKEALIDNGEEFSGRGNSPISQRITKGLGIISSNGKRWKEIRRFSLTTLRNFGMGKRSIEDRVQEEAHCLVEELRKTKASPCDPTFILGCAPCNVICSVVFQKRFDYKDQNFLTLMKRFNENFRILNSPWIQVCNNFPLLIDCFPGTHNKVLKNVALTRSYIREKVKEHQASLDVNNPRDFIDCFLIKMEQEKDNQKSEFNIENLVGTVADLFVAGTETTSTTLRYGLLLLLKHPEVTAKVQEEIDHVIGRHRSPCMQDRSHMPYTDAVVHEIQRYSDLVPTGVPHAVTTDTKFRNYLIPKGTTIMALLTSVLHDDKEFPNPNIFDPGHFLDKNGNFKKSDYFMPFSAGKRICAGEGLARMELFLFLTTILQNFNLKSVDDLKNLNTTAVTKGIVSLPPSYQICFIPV

`CCCCCCC(C)(C)c1cc(O)c(C(=O)Nc2ccccc2)c(O)c1` [Compound 5B, 2,6-dihydroxy-4-(2-methyloctan-2-yl)-N-phenylbenzamide]: the “clearance (microsomal stability assays)” value in series [1] is recorded as “acceptable”. Further, the “half-life (microsomal stability assays)” value in series [1] is given as “acceptable”. Also, the “stability in mouse liver microsomes” value in [1] is “good”. Moreover, the IC50 in series [2] is 640 to 750 nM; with DU145 (prostate), less than 500 nM; in the series on PANC-1 (Homo sapiens, PANC-1, read-out: IC50 category), less than 500 nM; with mouse 4T1 TNBC, 500 to 1000 nM; in series [4], 640 to 750 nM. Moreover, at CYP2C8, the “inhibition of CYP2C8” value is on record as “some inhibition”. For the same molecule, the “improvement in potency (IC50) compared to the parent compound CBD” value in the series with PANC-1 (PANC-1 (by context)) was determined as 38 fold. Also, in series [3], the “effect on paclitaxel inhibition of cell viability” value is given as “can enhance the ability of paclitaxel to inhibit the viability”. Moreover, in the series with Id-1, the “inhibition of Id-1 expression” value is given as “significant potency”.
